Test system: HIV-1 cell line, CEMIIIB
Test: Long term in vitro study, CEMIIIB cells, reverse transcriptase analysis
Assay type: cell-based
Set-up: Reverse transcriptase data: unit not given here
Experimental: A microtiter-based reveres transcriptase (RT) reaction is utilized (Buckheit et al (1991) AIDS Research and Human Retroviruses 7:295-302). Tritiated thymidine triphosphate (NEN)(TTP) is resuspended in distilled water at 5 Ci/ml. Poly rA and oligo dT are prepared as a stock solution which is kept at -20° C. The RT reaction buffer is prepared fresh on a daily basis and consists of 125 μl 1M EGTA, 125 μl water, 125 μl Triton X-100, 50 μl Tris (pH 7.4), 50 μl MDDT, and 40 μl 1M MgCl2. These three solutions are mixed together in a ratio of 1 part TTP, 2.5 parts poly rA:oligo dT, 2.5 parts reaction buffer and 4 parts distilled water. Ten microliters of this reaction mixture is placed in a round bottom microtiter place and 15 μl of virus containing supernatant is added and mixed. The plate is incubated at 37° C. and incubated for 60 minutes. Following reaction, the reaction volume is spotted onto filter mats, washed 6 times for 5 minutes each in a 5% sodium phosphate buffer, 2 times for 1 minute each in distilled water, 2 times for 1 minute each in 70% ethanol, and then dried. The dried filter mat is placed in a plastic sample bag, Betaplate scintillation fluid is added and the bag is heat sealed. Incorporated radioactivity is quantified utilizing a Wallac Microbeta scintillation counter.
Acute infection of most established human cell lines with HIV- I results in the eventual establishment of a constitutive virus-producing chronically infected cell line. The cells can be passaged for long periods of time in culture without loss of virus production. These cells may be utilized to evaluate the effects of anti-HIV compounds on syncytium formation or to evaluate the effects of anti-HIV compounds on levels of virus production from these cells. […] Each of the cells contains an integrated HIV genome or provirus. Chronically infected CEM, H9 and U937 cell lines have been prepared and cultured by Southern Research Institute, Frederick Md. and are available from them.
CEM-SS cells chronically infected with HIV isolate, for example SKI (CEM-SKI) are cultured in RPM1640 tissue culture medium supplemented with 10% fetal bovine serum and antibiotics. Selection is performed by culturing the cells in the presence of the compound to be tested in T25 flasks. CEM-SKI or other infected cells with no added drug are used as the control cells. Cells are allowed to grow to a density of approximately 1×10^6 cells/ml and are then passaged at a 1:10 dilution. After a period of time, usually one week intervals of drug treatment, cells are evaluated to determine if the inhibitory activity of the compound has been affected by treatment of the cells with either compounds. The drug concentration in the flask is then increased two-fold and the cells maintained as above.
The cell populations contain integrated copies of the HIV genome and constitutively produce HIV at relatively high levels or are latently infected and only produce virus after stimulation with phorbol esters, tumor necrosis factor or IL6(U1 and ACH2). Reductions in virus products were observed when quantifying supernatant reverse transcriptase activity,
Toxicity Values are measured by XTT and activity of the compound in the tests is measured by a Reverse Transcriptase analysis.
A long term in vitro study of 3-hexahydro-3-ethyl-1-methyl-2-oxo-1H-azepin-3-yl)phenyl ester of 4-chlorophenyl carbamic acid against an HIV-1 cell line, CEMIIIB was conducted at three different levels. The results with CEIIIB cells were reported at weekly intervals. The CEMIIIB is a […] of the CEMSS cell line and is a chronic HIV cell line.

With `CCC1(c2cccc(OC(=O)Nc3ccc(Cl)cc3)c2)CCCCN(C)C1=O` (stereo not shown) [(4-chlorophenyl)-carbamic acid, 3-(hexahydro-3-ethyl-1-methyl-2-oxo-1H-azepin-3-yl) 2 phenyl ester] the “Reverse transcriptase data, continued test” value was “data remained consistent”, the Reverse transcriptase data (7 μg/ml, Day 4) was 1643 and the Reverse transcriptase data (7 μg/ml, Day 11) was 1294. For the same compound, the Reverse transcriptase data (7 μg/ml, Day 18) was 1521, the Reverse transcriptase data (7 μg/ml, Day 25) was 1725 and the Reverse transcriptase data (7 μg/ml, Day 32) was 1239. The Reverse transcriptase data (7 μg/ml, Day 39) was 1341, the Reverse transcriptase data (7 μg/ml, Day 46) was 1694 and the Reverse transcriptase data (7 μg/ml, Day 53) was 1287. For the same compound, the Reverse transcriptase data (7 μg/ml, Day 60) was 1631, the Reverse transcriptase data (7 μg/ml, Day 67) was 1245 and the Reverse transcriptase data (7 μg/ml, Day 71) was 1483. For the same compound, the Reverse transcriptase data (7 μg/ml, Day 74) was 1502, the Reverse transcriptase data (7 μg/ml, Day 88) was 7383 and the Reverse transcriptase data (7 μg/ml, Day 95) was 5512. The Reverse transcriptase data (7 μg/ml, Day 102) was 8512, the Reverse transcriptase data (7 μg/ml, Day 109) was 58104 and the Reverse transcriptase data (15 μg/ml, Day 4) was 1526. It also gave a Reverse transcriptase data (15 μg/ml, Day 11) of 1168, a Reverse transcriptase data (15 μg/ml, Day 18) of 1241 and a Reverse transcriptase data (15 μg/ml, Day 25) of 1361. It also gave a Reverse transcriptase data (15 μg/ml, Day 32) of 1168, a Reverse transcriptase data (15 μg/ml, Day 39) of 1162 and a Reverse transcriptase data (15 μg/ml, Day 46) of 1084. It also gave a Reverse transcriptase data (15 μg/ml, Day 53) of 902, a Reverse transcriptase data (15 μg/ml, Day 60) of 1310 and a Reverse transcriptase data (15 μg/ml, Day 67) of 1093. The Reverse transcriptase data (15 μg/ml, Day 71) was 1056, the Reverse transcriptase data (15 μg/ml, Day 74) was 763 and the Reverse transcriptase data (15 μg/ml, Day 88) was 4415. It also gave a Reverse transcriptase data (15 μg/ml, Day 95) of 3205, a Reverse transcriptase data (15 μg/ml, Day 102) of 6902 and a Reverse transcriptase data (15 μg/ml, Day 109) of 60170. It also gave a Reverse transcriptase data (30 μg/ml, Day 4) of 602, a Reverse transcriptase data (30 μg/ml, Day 11) of 265 and a Reverse transcriptase data (30 μg/ml, Day 18) of 581. For the same compound, the Reverse transcriptase data (30 μg/ml, Day 25) was 496, the Reverse transcriptase data (30 μg/ml, Day 32) was 268 and the Reverse transcriptase data (30 μg/ml, Day 39) was 381. It also gave a Reverse transcriptase data (30 μg/ml, Day 46) of 562, a Reverse transcriptase data (30 μg/ml, Day 53) of 308 and a Reverse transcriptase data (30 μg/ml, Day 60) of 241. It also gave a Reverse transcriptase data (30 μg/ml, Day 67) of 301, a Reverse transcriptase data (30 μg/ml, Day 71) of 321 and a Reverse transcriptase data (30 μg/ml, Day 74) of 202. It also gave a Reverse transcriptase data (30 μg/ml, Day 88) of 370, a Reverse transcriptase data (30 μg/ml, Day 95) of 299 and a Reverse transcriptase data (30 μg/ml, Day 102) of 928. The Reverse transcriptase data (30 μg/ml, Day 109) was 2019.
